Results reported in paper PMC3582901 (Angewandte Chemie (International ed. in English), 2011).

Target: DYNLL1 (dynein light chain type 1) (Homo sapiens, UniProt P63167)
Assay: isothermal titration calorimetry
Format: binding

Chain of DYNLL1 (dynein light chain type 1) (P63167 whole entry): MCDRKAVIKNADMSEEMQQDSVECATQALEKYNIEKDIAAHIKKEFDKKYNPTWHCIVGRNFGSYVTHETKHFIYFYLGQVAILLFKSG

- Kd: 0.84 ± 0.31 µM
SMILES: C=C(C)[C@@H](CC[C@]1(C)O[C@@H]([C@](C)(O)[C@@H]2CC[C@H]3O[C@@H]([C@]4(C)CC[C@@H](Br)C(C)(C)O4)CC[C@]3(C)O2)C[C@H]1O)OC [1a, aplysqualenol A]
